Reference: article PMC4648050, “Discovery of Inhibitors of Trypanosoma brucei by Phenotypic Screening of a Focused Protein Kinase Library” (Chemmedchem, 2015)

How the values were obtained:
Assay type in all cases: biochemical, human/mammalian
Conditions in all cases: compound at 10 μM, read-out: % of activity respect of the control
p38s MAPK = molecular target: T1, p38s MAPK (Homo sapiens, UniProt O15264); test: Kinase panel: p38s MAPK
T1 sequence (O15264 1-365): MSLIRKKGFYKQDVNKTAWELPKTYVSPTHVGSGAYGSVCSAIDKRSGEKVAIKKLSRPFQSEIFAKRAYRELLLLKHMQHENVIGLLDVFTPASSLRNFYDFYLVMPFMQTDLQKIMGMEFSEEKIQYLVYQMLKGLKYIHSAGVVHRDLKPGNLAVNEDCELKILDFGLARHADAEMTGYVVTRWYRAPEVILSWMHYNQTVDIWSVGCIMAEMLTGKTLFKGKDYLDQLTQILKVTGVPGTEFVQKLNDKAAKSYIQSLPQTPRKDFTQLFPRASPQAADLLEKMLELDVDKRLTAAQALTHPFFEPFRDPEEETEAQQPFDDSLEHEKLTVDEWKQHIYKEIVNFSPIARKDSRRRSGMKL
Method: (§1) The DDU kinase-focused compound set contains lead-like scaffolds that are designed to target protein kinases; they have kinase hinge binding motifs. Four of the 1H-imidazopyrazinones were screened against a human/mammalian kinase panel at the University of Dundee (http://www.kinase-screen.mrc.ac.uk) at a concentration of 10 μM. At the time of testing the panel contained 79 mammalian kinases selected to provide a broad coverage of the mammalian kinome (∼500 kinases in the human genome).[3] None of the compounds were active against any of the kinases at 10 μM.

BTK = BTK (Homo sapiens, UniProt Q06187); test: Kinase panel: BTK
Method: as §1

TBK1 (DU12569) = molecular target: T2, TBK1 (DU12569) (Homo sapiens, UniProt Q9UHD2); test: Kinase panel: TBK1 (DU12569)
T2 sequence (Q9UHD2 1-729): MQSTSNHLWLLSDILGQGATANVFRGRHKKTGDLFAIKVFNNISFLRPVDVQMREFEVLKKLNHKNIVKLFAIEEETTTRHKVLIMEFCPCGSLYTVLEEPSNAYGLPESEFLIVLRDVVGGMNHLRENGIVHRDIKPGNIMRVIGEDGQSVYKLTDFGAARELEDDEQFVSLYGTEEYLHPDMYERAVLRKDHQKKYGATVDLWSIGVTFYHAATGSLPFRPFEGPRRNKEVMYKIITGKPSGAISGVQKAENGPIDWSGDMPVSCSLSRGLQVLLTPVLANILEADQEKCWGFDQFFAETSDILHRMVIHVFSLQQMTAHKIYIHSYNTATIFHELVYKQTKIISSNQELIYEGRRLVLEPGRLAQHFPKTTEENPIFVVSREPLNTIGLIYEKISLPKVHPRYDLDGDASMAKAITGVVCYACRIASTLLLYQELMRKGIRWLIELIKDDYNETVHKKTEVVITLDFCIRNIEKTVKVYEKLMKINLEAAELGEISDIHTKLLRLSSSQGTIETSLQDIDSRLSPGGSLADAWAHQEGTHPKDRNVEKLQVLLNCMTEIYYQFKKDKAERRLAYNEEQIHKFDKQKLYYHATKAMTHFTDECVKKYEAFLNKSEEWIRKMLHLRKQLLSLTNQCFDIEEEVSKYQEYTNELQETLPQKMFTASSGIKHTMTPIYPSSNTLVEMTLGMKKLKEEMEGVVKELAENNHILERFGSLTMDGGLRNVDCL
Method: as §1

PKC zeta = molecular target: T3, PKC zeta (Homo sapiens, UniProt Q05513); test: Kinase panel: PKC zeta
T3 sequence (Q05513 1-592): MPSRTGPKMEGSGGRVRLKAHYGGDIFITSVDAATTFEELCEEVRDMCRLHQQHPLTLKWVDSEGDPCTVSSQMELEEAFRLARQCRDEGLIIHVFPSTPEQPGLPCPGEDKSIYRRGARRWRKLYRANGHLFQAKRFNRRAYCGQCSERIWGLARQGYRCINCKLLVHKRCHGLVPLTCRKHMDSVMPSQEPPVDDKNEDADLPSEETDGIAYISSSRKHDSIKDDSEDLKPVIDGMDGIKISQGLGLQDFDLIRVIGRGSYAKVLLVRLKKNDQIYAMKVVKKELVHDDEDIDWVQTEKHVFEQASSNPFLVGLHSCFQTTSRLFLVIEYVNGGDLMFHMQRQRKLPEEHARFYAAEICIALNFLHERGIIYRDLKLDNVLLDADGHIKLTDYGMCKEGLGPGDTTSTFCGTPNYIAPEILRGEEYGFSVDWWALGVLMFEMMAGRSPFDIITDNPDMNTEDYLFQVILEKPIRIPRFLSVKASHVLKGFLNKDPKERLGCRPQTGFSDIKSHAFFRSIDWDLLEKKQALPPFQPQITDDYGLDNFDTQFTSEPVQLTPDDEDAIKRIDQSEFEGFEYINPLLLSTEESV
Method: as §1

DYRK3 = molecular target: T4, DYRK3 (Homo sapiens, UniProt O43781); test: Kinase panel: DYRK3
T4 sequence (O43781 1-588): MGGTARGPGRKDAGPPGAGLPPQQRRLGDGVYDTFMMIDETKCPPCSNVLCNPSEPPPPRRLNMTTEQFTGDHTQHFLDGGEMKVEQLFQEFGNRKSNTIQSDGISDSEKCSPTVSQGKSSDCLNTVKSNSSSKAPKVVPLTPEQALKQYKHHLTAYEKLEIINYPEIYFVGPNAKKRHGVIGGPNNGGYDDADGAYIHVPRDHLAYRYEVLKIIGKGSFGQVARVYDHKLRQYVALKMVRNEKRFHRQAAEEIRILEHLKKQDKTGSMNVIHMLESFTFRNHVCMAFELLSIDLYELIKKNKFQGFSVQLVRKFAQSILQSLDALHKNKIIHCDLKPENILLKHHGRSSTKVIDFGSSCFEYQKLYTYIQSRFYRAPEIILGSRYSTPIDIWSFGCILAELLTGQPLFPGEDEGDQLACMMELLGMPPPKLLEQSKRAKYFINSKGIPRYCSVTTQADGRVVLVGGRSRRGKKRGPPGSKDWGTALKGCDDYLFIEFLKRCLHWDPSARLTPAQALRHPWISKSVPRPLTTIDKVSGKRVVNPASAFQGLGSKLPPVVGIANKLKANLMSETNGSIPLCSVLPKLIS
Method: as §1

ERK2 = ERK2 (Homo sapiens, UniProt P28482); test: Kinase panel: ERK2
Method: as §1

MSK1 = MSK1 (Homo sapiens, UniProt O75582); test: Kinase panel: MSK1
Method: as §1

Sequence of MSK1 (O75582 whole entry): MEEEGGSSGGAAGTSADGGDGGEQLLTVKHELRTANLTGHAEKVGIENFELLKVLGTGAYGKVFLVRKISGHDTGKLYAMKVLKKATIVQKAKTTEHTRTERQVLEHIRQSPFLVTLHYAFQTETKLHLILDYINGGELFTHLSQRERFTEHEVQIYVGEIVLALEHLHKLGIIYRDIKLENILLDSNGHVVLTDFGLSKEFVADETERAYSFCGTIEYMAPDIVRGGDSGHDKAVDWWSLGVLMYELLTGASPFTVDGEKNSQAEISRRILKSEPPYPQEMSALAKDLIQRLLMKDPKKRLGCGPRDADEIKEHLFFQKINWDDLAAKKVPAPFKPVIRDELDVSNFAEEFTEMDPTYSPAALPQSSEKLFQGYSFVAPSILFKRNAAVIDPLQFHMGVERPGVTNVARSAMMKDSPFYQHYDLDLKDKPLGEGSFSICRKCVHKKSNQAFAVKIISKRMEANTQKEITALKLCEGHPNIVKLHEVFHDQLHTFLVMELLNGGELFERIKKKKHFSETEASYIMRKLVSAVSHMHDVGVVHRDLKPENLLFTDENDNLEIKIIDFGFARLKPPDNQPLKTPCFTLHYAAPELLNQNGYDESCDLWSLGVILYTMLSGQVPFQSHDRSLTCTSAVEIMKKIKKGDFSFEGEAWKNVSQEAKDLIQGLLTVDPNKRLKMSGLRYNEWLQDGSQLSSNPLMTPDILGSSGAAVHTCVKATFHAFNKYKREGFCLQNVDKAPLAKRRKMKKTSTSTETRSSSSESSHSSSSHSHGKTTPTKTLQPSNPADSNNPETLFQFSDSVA
Sequence of ERK2 (P28482 whole entry): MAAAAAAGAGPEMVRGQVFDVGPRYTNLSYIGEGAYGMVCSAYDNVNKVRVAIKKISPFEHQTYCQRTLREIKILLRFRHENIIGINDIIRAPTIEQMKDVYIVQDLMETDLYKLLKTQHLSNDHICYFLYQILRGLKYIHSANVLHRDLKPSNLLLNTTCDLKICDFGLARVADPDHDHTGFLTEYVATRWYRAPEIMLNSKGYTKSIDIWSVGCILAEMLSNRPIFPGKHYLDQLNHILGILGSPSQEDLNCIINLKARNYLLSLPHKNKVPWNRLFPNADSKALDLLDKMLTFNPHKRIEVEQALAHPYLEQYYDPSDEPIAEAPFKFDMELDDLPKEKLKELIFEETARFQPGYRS
Sequence of BTK (Q06187 whole entry): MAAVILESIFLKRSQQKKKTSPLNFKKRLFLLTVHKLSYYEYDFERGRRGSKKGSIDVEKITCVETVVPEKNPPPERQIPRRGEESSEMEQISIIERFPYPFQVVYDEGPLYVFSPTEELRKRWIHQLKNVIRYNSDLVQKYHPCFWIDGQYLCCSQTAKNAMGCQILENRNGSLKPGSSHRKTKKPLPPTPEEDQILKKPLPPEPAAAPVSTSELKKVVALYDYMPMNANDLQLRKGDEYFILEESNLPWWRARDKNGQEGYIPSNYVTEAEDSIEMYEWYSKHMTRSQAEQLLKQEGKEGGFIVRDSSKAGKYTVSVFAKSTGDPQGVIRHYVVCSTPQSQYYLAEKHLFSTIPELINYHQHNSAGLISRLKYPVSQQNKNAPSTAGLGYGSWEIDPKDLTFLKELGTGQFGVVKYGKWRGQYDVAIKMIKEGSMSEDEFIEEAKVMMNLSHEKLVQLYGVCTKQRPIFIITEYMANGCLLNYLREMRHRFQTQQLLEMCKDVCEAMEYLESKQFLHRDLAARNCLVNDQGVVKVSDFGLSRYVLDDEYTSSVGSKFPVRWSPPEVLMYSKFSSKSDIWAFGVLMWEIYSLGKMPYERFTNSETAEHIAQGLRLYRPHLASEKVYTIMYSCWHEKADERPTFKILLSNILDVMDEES

Work on `CC(c1ccccc1)n1c(=O)[nH]c2ncc(-c3ccc(F)cc3)nc21` (stereo not shown) [Compound 1] yielded a remaining activity at 10 µM (p38s MAPK) of 108%, a remaining activity at 10 µM (BTK) of 113% and a remaining activity at 10 µM (TBK1 (DU12569)) of 95%. For the same compound, the remaining activity at 10 µM (PKC zeta) was 94%, the remaining activity at 10 µM (DYRK3) was 109% and the remaining activity at 10 µM (ERK2) was 65%. For the same compound, the remaining activity at 10 µM (MSK1) was 89%.

`O=c1[nH]c2ncc(-c3ccc(F)cc3)nc2n1CC1CC1` [Compound 10] showed a remaining activity at 10 µM (p38s MAPK) of 91%, a remaining activity at 10 µM (BTK) of 104% and a remaining activity at 10 µM (TBK1 (DU12569)) of 86%. The remaining activity at 10 µM (PKC zeta) was 90%, the remaining activity at 10 µM (DYRK3) was 108% and the remaining activity at 10 µM (ERK2) was 84%. It also gave a remaining activity at 10 µM (MSK1) of 89%.

With `O=c1[nH]c2ncc(-c3ccc(F)cc3)nc2n1C1CCCCC1` [Compound 12, 1-Cyclohexyl-6-(4-fluorophenyl)-1H-imidazo[4,5-b]pyrazin-2(3H)-one] the remaining activity at 10 µM (p38s MAPK) was 76%, the remaining activity at 10 µM (BTK) was 111% and the remaining activity at 10 µM (TBK1 (DU12569)) was 90%. The remaining activity at 10 µM (PKC zeta) was 90%, the remaining activity at 10 µM (DYRK3) was 99% and the remaining activity at 10 µM (ERK2) was 41%. For the same compound, the remaining activity at 10 µM (MSK1) was 97%.

Compound `C[C@H](c1ccccc1)n1c(=O)[nH]c2ncc(-c3ccccc3)nc21` [Compound 14, (R)-6-Phenyl-1-(1-phenylethyl)-1H-imidazo[4,5-b]pyrazin-2(3H)-one] has a remaining activity at 10 µM (p38s MAPK) of 77%, a remaining activity at 10 µM (BTK) of 97% and a remaining activity at 10 µM (TBK1 (DU12569)) of 78%. For the same compound, the remaining activity at 10 µM (PKC zeta) was 88%, the remaining activity at 10 µM (DYRK3) was 100% and the remaining activity at 10 µM (ERK2) was 121%. The remaining activity at 10 µM (MSK1) was 93%.
